Laboratory results: US11324728B2, “Dosing regimens for the treatment of fungal infections” (Seren Pharmaceuticals Inc., priority 2017, dated 2022)

Assay: Pharmacokinetics: toenail and plasma ravuconazole concentrations
Assay type: in vivo, human
Method: A Phase II clinical pharmacology study was conducted in subjects with onychomycosis of the toenail. The study investigated the pharmacokinetics, efficacy and safety of three different dosing regimens of fosravuconazole. […] The three treatment groups were as follows: • a.

[1] = fosravuconazole 100 mg (once daily dose) group
[2] = fosravuconazole 400 mg (pulse treatment) group

time toenail ravuconazole concentrations maintained at MIC90 or higher, longer than in 400 mg (pulse treatment) group [1]: about 4 weeks | toenail ravuconazole concentrations compared with 400 mg (pulse treatment) group (fosravuconazole 100 mg (once daily dose) group, Week 20 and onwards): fluctuated at higher levels | toenail ravuconazole concentrations, arithmetic mean and geometric mean (fosravuconazole 200 mg (pulse treatment) group): ≤ 60 ng/mL
SMILES: C[C@@H](c1nc(-c2ccc(C#N)cc2)cs1)[C@](O)(Cn1cncn1)c1ccc(F)cc1F [ravuconazole, 4-[2-[(2R,3R)-3-(2,4-difluorophenyl)-3-hydroxy-4-(1,2,4-triazol-1-yl)butan-2-yl]-1,3-thiazol-4-yl]benzonitrile]
toenail ravuconazole concentrations versus MIC90, arithmetic mean [1]: exceeded MIC90 in arithmetic mean at Week 8 and maintained at MIC90 or higher until Week 28 | toenail ravuconazole concentrations versus MIC90, geometric mean [1]: exceeded MIC90 at Week 12 after the study treatment initiation and maintained at MIC90 or higher until Week 24 | toenail ravuconazole concentrations versus MIC90, arithmetic mean [2]: exceeded MIC90 in arithmetic mean at Week 8 after the study treatment initiation and maintained at MIC90 or higher until Week 24 | toenail ravuconazole concentrations versus MIC90, geometric mean [2]: exceeded MIC90 at Week 12 after the study treatment initiation and maintained at MIC90 or higher until Week 24
